The source of these data is PubChem BioAssay (NCI).

Among the test systems are 786-0 renal; OVCAR-4 ovarian; SK-MEL-5 melanoma; RXF 393 renal; SK-MEL-2 melanoma; HT29 colon; HCC-2998 colon; SF-539 CNS; CCRF-CEM leukemia; NCI-H460 lung.
Assay in all cases: inhibition of tumour cell growth, NCI panel, 48 h

Where “and” joins values, the source holds several entries; their conditions need not be identical. Equal entries are not always repeated.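 Protocol summary: plate cells (96-well), add compound at 5 concentrations, incubate 48 h, interpolate endpoints linearly. Here, GI50 denotes the concentration required for 50% inhibition of growth. At the TGI there is no net growth.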 Some results are limits rather than exact numbers.

Consider `CN(/N=C/c1cccc2cccnc12)c1ccccc1`, for which the TGI in the assay on 786-0 renal, in the assay with OVCAR-4 ovarian, in the assay with SK-MEL-5 melanoma, in the assay with RXF 393 renal, in the assay on SK-MEL-2 melanoma and in the assay with HT29 colon was greater than 100 µM in each case. The TGI with HCC-2998 colon, with SF-539 CNS, with CCRF-CEM leukemia and in the assay on NCI-H460 lung was greater than 100 µM each time.
`NC(=S)N/N=C/c1ncccc1N`: the GI50 in the assay on 786-0 renal is 0.419 µM; with OVCAR-4 ovarian, 3.57 µM; in the assay with SK-MEL-5 melanoma, 0.534 µM; in the assay on RXF 393 renal it was 0.489 µM; with SK-MEL-2 melanoma it was 75.7 µM; in the assay on HT29 colon, 2.19 µM. The GI50 in the assay on HCC-2998 colon is 1.14 µM; in the assay with CCRF-CEM leukemia, 1.14 µM; in the assay with NCI-H460 lung, 0.654 µM. Besides, the TGI with 786-0 renal was greater than 33.6 µM; in the assay on OVCAR-4 ovarian, greater than 50 µM; with SK-MEL-5 melanoma, 22.3 µM and > 10 µM; in the assay on RXF 393 renal, greater than 47.5 µM; in the assay with SK-MEL-2 melanoma, greater than 100 µM; in the assay on HT29 colon, greater than 63.4 µM. Besides, the TGI in the assay with HCC-2998 colon was greater than 100 µM; in the assay with SF-539 CNS, 1.23 µM and 0.673 µM; with CCRF-CEM leukemia, greater than 58.4 µM; in the assay on NCI-H460 lung it was 12.6 µM and > 10 µM.
